Assay results: patent publication US7786083B2, “Metastin derivatives and use thereof” (Takeda Pharmaceutical Company Limited, priority 2006, dated 2010)
*1 amine or outer side, *2 acyl side, *3 side chain or, on linkers, in order; H or OH if unused. Where a SMILES comes first, the peptide text is derived from it. [ ]: non-standard residue; d: D form. Hexanoyl(5S-NH,4S-OH,6-Ph) = O=C(CC[C@H](O)[C@H](Cc1ccccc1)N[*:1])[*:2]; X2 = O=C(/C=C/[C@@H](O)[C@H](Cc1ccccc1)N[*:1])[*:2]; X5 = O=C(/C=C/[C@H](O)[C@H](Cc1ccccc1)N[*:1])[*:2]; X3 = O=C(CC[C@@H](O)[C@H](Cc1ccccc1)N[*:1])[*:2]; X4 = O=C(CCC(=O)[*:2])[C@H](Cc1ccccc1)N[*:1]; X7 = O=C(C/C=C/[C@H](Cc1ccccc1)N[*:1])[*:2]; X9 = O=C(CCC[C@H](Cc1ccccc1)N[*:1])[*:2]; Arg(Me) = CNC(=N)NCCC[C@H](N)C(=O)O; Ala(cPr) = N[C@@H](CC1CC1)C(=O)O; Hyp = O=C(O)[C@@H]1C[C@@H](O)CN1; 2Pal = N[C@@H](Cc1ccccn1)C(=O)O; 3Pal = N[C@@H](Cc1cccnc1)C(=O)O; 4Pal = N[C@@H](Cc1ccncc1)C(=O)O; Cha = N[C@@H](CC1CCCCC1)C(=O)O

system: metastin receptors; assay: Measurement of agonist activity by assaying changes in intracellular calcium ion level (FLIPR, Fluo-4 NW); type: cell-based, human; settings: specific activity of the EC50 of a test compound based on the EC50 of Metastin (45-54), metastin receptor expression CHO cells
Experimental: 1) Preparation of Human Metastin and Rat Metastin Stable Expression Cell Lines
Human metastin and rat metastin stable expression cell lines were obtained by transfecting the expression plasmid for animal cells into CHO/dhfr^− cells using CellPhect Transfection Kit (manufactured by GE Healthcare). First, 240 μL of Buffer A (attached to CellPhect Transfection Kit) was added to 9.6 μg of plasmid DNA dissolved in 240 μL of distilled water followed by stirring. After the mixture was settled for 10 minutes, 480 μL of Buffer B (attached to CellPhect Transfection Kit) was added to the mixture, which was vigorously stirred to form liposomes containing the DNA. Then, 4×10^5 CHO/dhfr^− cells (obtained from ATCC) were inoculated on a 60 mm Petri dish. After culturing the cells in Ham's F-12 medium (manufactured by Nissui Seiyaku Co., Ltd.) supplemented with 10% fetal bovine serum (manufactured by BIO […], Inc.) at 37° C. for 2 days in 5% carbon dioxide gas, […] of the liposomes were dropwise added to the cells on the Petri dish. After culturing the cells in a CO2 incubator (5% CO2, 37° C.) for 6 hours, the cells were washed twice with serum-free Ham's F-12 medium and 3 mL of 15% glycerol was added to the cells on the Petri dish followed by treatment for 2 minutes. The cells were again washed twice with serum-free Ham's F-12 medium followed by incubation in Ham's F-12 medium supplemented with 10% fetal bovine serum in a CO2 incubator (5% CO2, 37° C.) for 15 hours. The cells were dispersed by trypsin treatment to recover from the Petri dish. The recovered cells were inoculated on a 6-well plate in 1.25×10^4 cells each/well and incubation was initiated in a CO2 incubator (5% CO2, 37° C.) in Dulbecco's modified Eagle medium (DMEM, manufactured by Nissui Seiyaku) containing 10% dialyzed fetal bovine serum (manufactured by JRH BIOSCIENCES, Inc.). The plasmid-transfected CHO transformants grew in the medium but the non-transfected cells gradually died, accordingly the medium was exchanged on Days 1 and 2 after the initiation of incubation to remove the dead cells. Approximately 20 colonies of the CHO transformants that kept growing on Days 8 to 10 after the incubation were isolated. From the cells in these colonies, cells showing high reactivity with the ligand peptide metastin (hereinafter merely referred to as h175 KB19 and h175 KB29 strains) were selected to provide for the following experiment.
Human metastin expression CHO cell line (h175 KB19 strain is described in a separate section) and rat metastin expression CHO cell line (h175 KB29 strain is described in a separate section) were seeded in a 96-well plate (type 3904, manufactured by Corning) at 3×10^4 cells/well, followed by incubation in a CO2 incubator (5% CO2, 37° C.) for 24 hours. For the medium, MEMα medium (nucleic acid-free, manufactured by Nikken Bio Medical Laboratory) supplemented with dialyzed 10% fetal bovine serum (manufactured by Thermo, MultiSer) was used.
3) Loading with Fluo-4 NW in Cells
As an assay buffer, 1× Hanks' balanced salt solution (HBSS, manufactured by GIBCO) supplemented with 0.1% BSA, 20 mM HEPES (pH 7.4, manufactured by GIBCO) and 1 mM Probenecid (manufactured by Molecular Probes) was prepared. The medium in the wells of the cell-seeded plate was removed and 100 μL each of the assay buffer (kept warm at 37° C.) was added to each well. After 10 mL of the assay buffer (the volume for assaying two plates) was charged in one Fluo-4NW dye mix (Component A, Fluo-4 NW calcium assay kit (starter pack), manufactured by Molecular Probes) bottle, the mixture was gently stirred to prepare the Fluo-4 NW loading solution. This loading solution was charged in each well by 50 μl each and reacted in a CO2 incubator (5% CO2, 37° C.) for 30 minutes for loading with Fluo-4 NW into the cells. Subsequently, the cells were settled at room temperature (25° C.) for 15 minutes and then used for assay.
4) Measurement of Agonist Activity […]

Specific Activity | SMILES
1.2 | CNC(=N)NCCC[C@H](NC(=O)[C@H](CC(C)C)NC(=O)CNC(=O)[C@H](Cc1ccccn1)NC(=O)[C@@H](NC(=O)[C@H](CC(N)=O)NC(=O)[C@@H]1C[C@@H](O)CN1C(=O)[C@@H](Cc1ccc(O)cc1)NC(C)=O)[C@@H](C)O)C(=O)N[C@@H](Cc1c[nH]c2ccccc12)C(N)=O [Compound No. 839, des(1)-Ac-[D-Tyr2,Hyp3,Thr5,Pya(2)6,Arg(Me)9,Trp10]MS10] (Ac-[dY][Hyp]NT[2Pal]GL[Arg(Me)]W-NH2)
1.7 | CNC(=N)NCCC[C@H](NC(=O)[C@H](CC(C)C)NC(=O)[C@@H](NC(=O)[C@H](Cc1ccccc1)NC(=O)[C@@H](NC(=O)[C@H](CC(N)=O)NC(=O)[C@@H]1C[C@@H](O)CN1C(=O)[C@@H](Cc1ccc(O)cc1)NC(C)=O)[C@@H](C)O)C(C)C)C(=O)N[C@@H](Cc1c[nH]c2ccccc12)C(N)=O [Compound No. 847, des(1)-Ac-[D-Tyr2,Hyp3,Thr5,Val7,Arg(Me)9,Trp10]MS10] (Ac-[dY][Hyp]NTFVL[Arg(Me)]W-NH2)
0.9 | CNC(=N)NCCC[C@H](NC(=O)[C@H](CC(C)C)NC(=O)CNC(=O)[C@H](Cc1cccnc1)NC(=O)[C@@H](NC(=O)[C@H](CC(N)=O)NC(=O)[C@@H]1C[C@@H](O)CN1C(=O)[C@@H](Cc1ccc(O)cc1)NC(C)=O)[C@@H](C)O)C(=O)N[C@@H](Cc1c[nH]c2ccccc12)C(N)=O [Compound No. 848, des(1)-Ac-[D-Tyr2,Hyp3,Thr5,Pya(3)6,Arg(Me)9,Trp10]MS10] (Ac-[dY][Hyp]NT[3Pal]GL[Arg(Me)]W-NH2)
0.9 | CNC(=N)NCCC[C@H](NC(=O)[C@H](CC(C)C)NC(=O)CNC(=O)[C@H](Cc1ccncc1)NC(=O)[C@@H](NC(=O)[C@H](CC(N)=O)NC(=O)[C@@H]1C[C@@H](O)CN1C(=O)[C@@H](Cc1ccc(O)cc1)NC(C)=O)[C@@H](C)O)C(=O)N[C@@H](Cc1c[nH]c2ccccc12)C(N)=O [Compound No. 849, des(1)-Ac-[D-Tyr2,Hyp3,Thr5,Pya(4)6,Arg(Me)9,Trp10]MS10] (Ac-[dY][Hyp]NT[4Pal]GL[Arg(Me)]W-NH2)
1.3 | CNC(=N)NCCC[C@H](NC(=O)[C@H](CC(C)C)NC(=O)CCC[C@H](Cc1ccccc1)NC(=O)[C@@H](NC(=O)[C@H](CC(N)=O)NC(=O)[C@@H]1C[C@@H](O)CN1C(=O)[C@@H](Cc1ccc(O)cc1)NC(C)=O)[C@@H](C)O)C(=O)N[C@@H](Cc1c[nH]c2ccccc12)C(N)=O [Compound No. 850, des(1)-Ac-[D-Tyr2,Hyp3,Thr5,Phe6Ψ(CH2CH2)Gly7,Arg(Me)9,Trp10]MS10] (Ac-[dY][Hyp]NT[X9]L[Arg(Me)]W-NH2)
1.1 | CNC(=N)NCCC[C@H](NC(=O)[C@H](CC(C)C)NC(=O)CCC(=O)[C@H](Cc1ccccc1)NC(=O)[C@@H](NC(=O)[C@H](CC(N)=O)NC(=O)[C@@H]1C[C@@H](O)CN1C(=O)[C@@H](Cc1ccc(O)cc1)NC(C)=O)[C@@H](C)O)C(=O)N[C@@H](Cc1c[nH]c2ccccc12)C(N)=O [Compound No. 851, des(1)-Ac-[D-Tyr2,Hyp3,Thr5,Phe6Ψ(COCH2)Gly7,Arg(Me)9,Trp10]MS10] (Ac-[dY][Hyp]NT[X4]L[Arg(Me)]W-NH2)
0.5 | CNC(=N)NCCC[C@H](NC(=O)[C@H](CC(C)C)NC(=O)CNC(=O)[C@H](Cc1ccccc1)NC(=O)[C@@H](NC(=O)[C@H](CC(N)=O)NC(=O)[C@H](CCC(=O)O)NC(=O)[C@@H](Cc1ccc(O)cc1)NC(C)=O)[C@@H](C)O)C(=O)N[C@@H](Cc1c[nH]c2ccccc12)C(N)=O [Compound No. 852, des(1)-Ac-[D-Tyr2,Glu3,Thr5,Arg(Me)9,Trp10]MS10] (Ac-[dY]ENTFGL[Arg(Me)]W-NH2)
0.6 | CNC(=N)NCCC[C@H](NC(=O)[C@H](CC(C)C)NC(=O)CNC(=O)[C@H](CC1CCCCC1)NC(=O)[C@@H](NC(=O)[C@H](CC(N)=O)NC(=O)[C@H](CCC(=O)O)NC(=O)[C@@H](Cc1ccc(O)cc1)NC(C)=O)[C@@H](C)O)C(=O)N[C@@H](Cc1c[nH]c2ccccc12)C(N)=O [Compound No. 853, des(1)-Ac-[D-Tyr2,Glu3,Thr5,Cha6,Arg(Me)9,Trp10]MS10] (Ac-[dY]ENT[Cha]GL[Arg(Me)]W-NH2)
1.9 | CNC(=N)NCCC[C@H](NC(=O)[C@H](CC(C)C)NC(=O)CNC(=O)[C@H](CC1CC1)NC(=O)[C@@H](NC(=O)[C@H](CC(N)=O)NC(=O)[C@@H]1C[C@@H](O)CN1C(=O)[C@@H](Cc1ccc(O)cc1)NC(C)=O)[C@@H](C)O)C(=O)N[C@@H](Cc1c[nH]c2ccccc12)C(N)=O [Compound No. 855, des(1)-Ac-[D-Tyr2,Hyp3,Thr5,Ala(cPr)6,Arg(Me)9,Trp10]MS10] (Ac-[dY][Hyp]NT[Ala(cPr)]GL[Arg(Me)]W-NH2)
1.2 | CNC(=N)NCCC[C@H](NC(=O)[C@H](CC(C)C)NC(=O)CC[C@H](O)[C@H](Cc1ccccc1)NC(=O)[C@@H](NC(=O)[C@H](CC(N)=O)NC(=O)[C@@H]1C[C@@H](O)CN1C(=O)[C@@H](Cc1ccc(O)cc1)NC(C)=O)[C@@H](C)O)C(=O)N[C@@H](Cc1c[nH]c2ccccc12)C(N)=O [Compound No. 857, des(1)-Ac-[D-Tyr2,Hyp3,Thr5,Phe6Ψ((S)CHOH—CH2)Gly7,Arg(Me)9,Trp10]MS10] (Ac-[dY][Hyp]NT[Hexanoyl(5S-NH,4S-OH,6-Ph)]L[Arg(Me)]W-NH2)
1.7 | CNC(=N)NCCC[C@H](NC(=O)[C@H](CC(C)C)NC(=O)/C=C/[C@H](O)[C@H](Cc1ccccc1)NC(=O)[C@@H](NC(=O)[C@H](CC(N)=O)NC(=O)[C@@H]1C[C@@H](O)CN1C(=O)[C@@H](Cc1ccc(O)cc1)NC(C)=O)[C@@H](C)O)C(=O)N[C@@H](Cc1c[nH]c2ccccc12)C(N)=O [Compound No. 858, des(1)-Ac-[D-Tyr2,Hyp3,Thr5,Phe6Ψ((S)CHOH—(E)CH=)Gly7,Arg(Me)9,Trp10]MS10] (Ac-[dY][Hyp]NT[X5]L[Arg(Me)]W-NH2)
0.7 | CNC(=N)NCCC[C@H](NC(=O)[C@H](CC(C)C)NC(=O)C/C=C/[C@H](Cc1ccccc1)NC(=O)[C@@H](NC(=O)[C@H](CC(N)=O)NC(=O)[C@@H]1C[C@@H](O)CN1C(=O)[C@@H](Cc1ccc(O)cc1)NC(C)=O)[C@@H](C)O)C(=O)N[C@@H](Cc1c[nH]c2ccccc12)C(N)=O [Compound No. 859, des(1)-Ac-[D-Tyr2,Hyp3,Thr5,Phe6Ψ((E)CH═CH)Gly7,Arg(Me)9,Trp10]MS10] (Ac-[dY][Hyp]NT[X7]L[Arg(Me)]W-NH2)
1.4 | CNC(=N)NCCC[C@H](NC(=O)[C@H](CC(C)C)NC(=O)/C=C/[C@@H](O)[C@H](Cc1ccccc1)NC(=O)[C@@H](NC(=O)[C@H](CC(N)=O)NC(=O)[C@@H]1C[C@@H](O)CN1C(=O)[C@@H](Cc1ccc(O)cc1)NC(C)=O)[C@@H](C)O)C(=O)N[C@@H](Cc1c[nH]c2ccccc12)C(N)=O [Compound No. 866, des(1)-Ac-[D-Tyr2,Hyp3,Thr5,Phe6Ψ((R)CHOH—(E)CH=)Gly7,Arg(Me)9,Trp10]MS10] (Ac-[dY][Hyp]NT[X2]L[Arg(Me)]W-NH2)
0.8 | CNC(=N)NCCC[C@H](NC(=O)[C@H](CC(C)C)NC(=O)CC[C@@H](O)[C@H](Cc1ccccc1)NC(=O)[C@@H](NC(=O)[C@H](CC(N)=O)NC(=O)[C@@H]1C[C@@H](O)CN1C(=O)[C@@H](Cc1ccc(O)cc1)NC(C)=O)[C@@H](C)O)C(=O)N[C@@H](Cc1c[nH]c2ccccc12)C(N)=O [Compound No. 867, des(1)-Ac-[D-Tyr2,Hyp3,Thr5,Phe6Ψ((R)CHOH—CH2)Gly7,Arg(Me)9,Trp10]MS10] (Ac-[dY][Hyp]NT[X3]L[Arg(Me)]W-NH2)
